# Patent US20100298141A1, “SUBSTITUTED PYRIDINE N-OXIDE HERBICIDES” (E. I. DU PONT DE NEMOURS AND COMPANY, priority 2007, published 2010)
# Legend:
# Assay in all cases: Test F preemergence test
# Conditions in all cases: scale 0 to 100
# Italian ryegrass = assay type: in vivo, Lolium multiflorum
# Description: (§1) Seeds of plant species selected from bermudagrass (Cynodon dactylon), Surinam grass (Brachiaria decumbens), large crabgrass (Digitaria sanguinalis), green foxtail (Setaria viridis), goosegrass (Eleusine indica), johnsongrass (Sorghum halepense), kochia (Kochia scoparia), pitted morningglory (Ipomoea lacunosa), purple nutsedge (Cyperus rotundus), common ragweed (Ambrosia elation), mustard (Brassica nigra), guineagrass (Panicum maximum), […] (Paspalum dilatatum), barnyardgrass (Echinochloa crus-galli), southern sandbur (Cenchrus echinatus), common sowthistle (Sonchus oleraceous), prickly […] spinosa), Italian ryegrass (Lolium multiflorum), common purslane (Portulaca oleracea), broadleaf signalgrass (Brachiaria platyphylla), common groundsel (Senecio vulgaris), common chickweed (Stellaria media), Virginia dayflower (Commelina virginica), annual bluegrass (Poa annua), naked crabgrass (Digitaria nuda), […] cochinchinensis), quackgrass (Elytrigia repens), Canada horseweed (Conyza canadensis), field bindweed (Convolvulus arvensis), […] (Bidens bipinnata), common mallow (Malva sylvestris), Russian thistle (Salsola kali), and sugarcane (Saccharum officinarum) were planted and treated preemergence with test chemicals formulated in a non-phytotoxic solvent mixture which included a surfactant. At a different time, sugarcane was treated with postemergence applications of some of the test chemicals formulated in the same manner. Plants were approximately 3- to 4-leaf stage for the postemergence treatments. Treated plants and controls were maintained in a greenhouse for 14 to 21 days, after which time all species were compared to controls and visually evaluated. […] A dash (-) response means no test result.
# mustard = assay type: in vivo, Brassica nigra
# Description: as §1
# field bindweed = assay type: in vivo, Convolvulus arvensis
# Description: as §1
# southern sandbur = assay type: in vivo, Cenchrus echinatus
# Description: as §1
# large crabgrass = assay type: in vivo, Digitaria sanguinalis
# Description: as §1
# Surinam grass = assay type: in vivo, Brachiaria decumbens
# Description: as §1
# common purslane = assay type: in vivo, Portulaca oleracea
# Description: as §1
# common mallow = assay type: in vivo, Malva sylvestris
# Description: as §1
# barnyardgrass = assay type: in vivo, Echinochloa crus-galli
# Description: as §1
# quackgrass = assay type: in vivo, Elytrigia repens
# Description: as §1
# Virginia dayflower = assay type: in vivo, Commelina virginica
# Description: as §1
# annual bluegrass = assay type: in vivo, Poa annua
# Description: as §1
# guineagrass = assay type: in vivo, Panicum maximum
# Description: as §1
# kochia = assay type: in vivo, Kochia scoparia
# Description: as §1
# dallisgrass = assay type: in vivo, Paspalum dilatatum
# Description: as §1
smiles,measurement,setting,value
Cn1nc(C(F)(F)F)c(CS(=O)(=O)c2cccc[n+]2[O-])c1OCC(F)(F)F [Compound 29],"Ryegrass, Italian plant response rating","Italian ryegrass; 62 g ai/ha, Preemergence",100
same,"Ryegrass, Italian plant response rating","Italian ryegrass; 125 g ai/ha, preemergence",100
same,"Plant response rating, Ryegrass, Italian","Italian ryegrass; Preemergence, 16 g ai/ha",65
same,"Plant response rating, Ryegrass, Italian","Italian ryegrass; Preemergence, 31 g ai/ha",100
same,Black Mustard plant response rating,"mustard; 62 g ai/ha, Preemergence",100
same,Black Mustard plant response rating,"mustard; 125 g ai/ha, preemergence",100
same,"Plant response rating, Black Mustard","mustard; Preemergence, 16 g ai/ha",40
same,"Plant response rating, Black Mustard","mustard; Preemergence, 31 g ai/ha",100
same,Field Bindweed plant response rating,"field bindweed; 62 g ai/ha, Preemergence",0
same,Field Bindweed plant response rating,"field bindweed; 125 g ai/ha, preemergence",0
same,"Plant response rating, Field Bindweed","field bindweed; Preemergence, 16 g ai/ha",0
same,"Plant response rating, Field Bindweed","field bindweed; Preemergence, 31 g ai/ha",0
same,Sandbur plant response rating,"southern sandbur; 62 g ai/ha, Preemergence",100
same,Sandbur plant response rating,"southern sandbur; 125 g ai/ha, preemergence",100
same,"Plant response rating, Sandbur","southern sandbur; Preemergence, 31 g ai/ha",100
same,"Crabgrass, Large plant response rating","large crabgrass; 62 g ai/ha, Preemergence",95
same,"Crabgrass, Large plant response rating","large crabgrass; 125 g ai/ha, preemergence",100
same,"Plant response rating, Crabgrass, Large","large crabgrass; Preemergence, 16 g ai/ha",15
same,"Plant response rating, Crabgrass, Large","large crabgrass; Preemergence, 31 g ai/ha",95
same,Surinam Grass plant response rating,"Surinam grass; 62 g ai/ha, Preemergence",100
same,Surinam Grass plant response rating,"Surinam grass; 125 g ai/ha, preemergence",100
same,"Plant response rating, Surinam Grass","Surinam grass; Preemergence, 31 g ai/ha",75
same,Purslane plant response rating,"common purslane; 62 g ai/ha, Preemergence",30
same,Purslane plant response rating,"common purslane; 125 g ai/ha, preemergence",30
same,"Plant response rating, Purslane","common purslane; Preemergence, 16 g ai/ha",0
same,"Plant response rating, Purslane","common purslane; Preemergence, 31 g ai/ha",0
same,Mallow plant response rating,"common mallow; 62 g ai/ha, Preemergence",100
same,Mallow plant response rating,"common mallow; 125 g ai/ha, preemergence",100
same,"Plant response rating, Mallow","common mallow; Preemergence, 16 g ai/ha",0
same,"Plant response rating, Mallow","common mallow; Preemergence, 31 g ai/ha",0
same,Barnyardgrass plant response rating,"barnyardgrass; 62 g ai/ha, Preemergence",100
same,Barnyardgrass plant response rating,"barnyardgrass; 125 g ai/ha, preemergence",100
same,"Plant response rating, Barnyardgrass","barnyardgrass; Preemergence, 16 g ai/ha",50
same,"Plant response rating, Barnyardgrass","barnyardgrass; Preemergence, 31 g ai/ha",100
same,Quackgrass plant response rating,"quackgrass; 62 g ai/ha, Preemergence",95
same,Quackgrass plant response rating,"quackgrass; 125 g ai/ha, preemergence",95
same,"Plant response rating, Quackgrass","quackgrass; Preemergence, 16 g ai/ha",0
same,"Plant response rating, Quackgrass","quackgrass; Preemergence, 31 g ai/ha",30
same,Dayflower plant response rating,"Virginia dayflower; 62 g ai/ha, Preemergence",100
same,Dayflower plant response rating,"Virginia dayflower; 125 g ai/ha, preemergence",100
same,"Plant response rating, Dayflower","Virginia dayflower; Preemergence, 16 g ai/ha",0
same,"Plant response rating, Dayflower","Virginia dayflower; Preemergence, 31 g ai/ha",95
same,Bluegrass plant response rating,"annual bluegrass; 62 g ai/ha, Preemergence",98
same,Bluegrass plant response rating,"annual bluegrass; 125 g ai/ha, preemergence",100
same,"Plant response rating, Bluegrass","annual bluegrass; Preemergence, 16 g ai/ha",20
same,"Plant response rating, Bluegrass","annual bluegrass; Preemergence, 31 g ai/ha",75
same,Guineagrass plant response rating,"guineagrass; 62 g ai/ha, Preemergence",100
same,Guineagrass plant response rating,"guineagrass; 125 g ai/ha, preemergence",100
same,"Plant response rating, Guineagrass","guineagrass; Preemergence, 16 g ai/ha",90
same,"Plant response rating, Guineagrass","guineagrass; Preemergence, 31 g ai/ha",100
same,Kochia plant response rating,"kochia; 62 g ai/ha, Preemergence",100
same,Kochia plant response rating,"kochia; 125 g ai/ha, preemergence",100
same,"Plant response rating, Kochia","kochia; Preemergence, 16 g ai/ha",0
same,"Plant response rating, Kochia","kochia; Preemergence, 31 g ai/ha",30
same,Dallisgrass plant response rating,"dallisgrass; 62 g ai/ha, Preemergence",100
same,Dallisgrass plant response rating,"dallisgrass; 125 g ai/ha, preemergence",100
same,"Plant response rating, Dallisgrass","dallisgrass; Preemergence, 16 g ai/ha",0
same,"Plant response rating, Dallisgrass","dallisgrass; Preemergence, 31 g ai/ha",100
